The values below come from ChEMBL document CHEMBL5352414 (Eur J Med Chem, 2022).

The structures appear in SMILES notation. pIC50: −log10 of the molar value. Calls of active or inactive are those of the source.

Sequence of Voltage-dependent T-type calcium channel subunit alpha-1G (O43497 whole entry): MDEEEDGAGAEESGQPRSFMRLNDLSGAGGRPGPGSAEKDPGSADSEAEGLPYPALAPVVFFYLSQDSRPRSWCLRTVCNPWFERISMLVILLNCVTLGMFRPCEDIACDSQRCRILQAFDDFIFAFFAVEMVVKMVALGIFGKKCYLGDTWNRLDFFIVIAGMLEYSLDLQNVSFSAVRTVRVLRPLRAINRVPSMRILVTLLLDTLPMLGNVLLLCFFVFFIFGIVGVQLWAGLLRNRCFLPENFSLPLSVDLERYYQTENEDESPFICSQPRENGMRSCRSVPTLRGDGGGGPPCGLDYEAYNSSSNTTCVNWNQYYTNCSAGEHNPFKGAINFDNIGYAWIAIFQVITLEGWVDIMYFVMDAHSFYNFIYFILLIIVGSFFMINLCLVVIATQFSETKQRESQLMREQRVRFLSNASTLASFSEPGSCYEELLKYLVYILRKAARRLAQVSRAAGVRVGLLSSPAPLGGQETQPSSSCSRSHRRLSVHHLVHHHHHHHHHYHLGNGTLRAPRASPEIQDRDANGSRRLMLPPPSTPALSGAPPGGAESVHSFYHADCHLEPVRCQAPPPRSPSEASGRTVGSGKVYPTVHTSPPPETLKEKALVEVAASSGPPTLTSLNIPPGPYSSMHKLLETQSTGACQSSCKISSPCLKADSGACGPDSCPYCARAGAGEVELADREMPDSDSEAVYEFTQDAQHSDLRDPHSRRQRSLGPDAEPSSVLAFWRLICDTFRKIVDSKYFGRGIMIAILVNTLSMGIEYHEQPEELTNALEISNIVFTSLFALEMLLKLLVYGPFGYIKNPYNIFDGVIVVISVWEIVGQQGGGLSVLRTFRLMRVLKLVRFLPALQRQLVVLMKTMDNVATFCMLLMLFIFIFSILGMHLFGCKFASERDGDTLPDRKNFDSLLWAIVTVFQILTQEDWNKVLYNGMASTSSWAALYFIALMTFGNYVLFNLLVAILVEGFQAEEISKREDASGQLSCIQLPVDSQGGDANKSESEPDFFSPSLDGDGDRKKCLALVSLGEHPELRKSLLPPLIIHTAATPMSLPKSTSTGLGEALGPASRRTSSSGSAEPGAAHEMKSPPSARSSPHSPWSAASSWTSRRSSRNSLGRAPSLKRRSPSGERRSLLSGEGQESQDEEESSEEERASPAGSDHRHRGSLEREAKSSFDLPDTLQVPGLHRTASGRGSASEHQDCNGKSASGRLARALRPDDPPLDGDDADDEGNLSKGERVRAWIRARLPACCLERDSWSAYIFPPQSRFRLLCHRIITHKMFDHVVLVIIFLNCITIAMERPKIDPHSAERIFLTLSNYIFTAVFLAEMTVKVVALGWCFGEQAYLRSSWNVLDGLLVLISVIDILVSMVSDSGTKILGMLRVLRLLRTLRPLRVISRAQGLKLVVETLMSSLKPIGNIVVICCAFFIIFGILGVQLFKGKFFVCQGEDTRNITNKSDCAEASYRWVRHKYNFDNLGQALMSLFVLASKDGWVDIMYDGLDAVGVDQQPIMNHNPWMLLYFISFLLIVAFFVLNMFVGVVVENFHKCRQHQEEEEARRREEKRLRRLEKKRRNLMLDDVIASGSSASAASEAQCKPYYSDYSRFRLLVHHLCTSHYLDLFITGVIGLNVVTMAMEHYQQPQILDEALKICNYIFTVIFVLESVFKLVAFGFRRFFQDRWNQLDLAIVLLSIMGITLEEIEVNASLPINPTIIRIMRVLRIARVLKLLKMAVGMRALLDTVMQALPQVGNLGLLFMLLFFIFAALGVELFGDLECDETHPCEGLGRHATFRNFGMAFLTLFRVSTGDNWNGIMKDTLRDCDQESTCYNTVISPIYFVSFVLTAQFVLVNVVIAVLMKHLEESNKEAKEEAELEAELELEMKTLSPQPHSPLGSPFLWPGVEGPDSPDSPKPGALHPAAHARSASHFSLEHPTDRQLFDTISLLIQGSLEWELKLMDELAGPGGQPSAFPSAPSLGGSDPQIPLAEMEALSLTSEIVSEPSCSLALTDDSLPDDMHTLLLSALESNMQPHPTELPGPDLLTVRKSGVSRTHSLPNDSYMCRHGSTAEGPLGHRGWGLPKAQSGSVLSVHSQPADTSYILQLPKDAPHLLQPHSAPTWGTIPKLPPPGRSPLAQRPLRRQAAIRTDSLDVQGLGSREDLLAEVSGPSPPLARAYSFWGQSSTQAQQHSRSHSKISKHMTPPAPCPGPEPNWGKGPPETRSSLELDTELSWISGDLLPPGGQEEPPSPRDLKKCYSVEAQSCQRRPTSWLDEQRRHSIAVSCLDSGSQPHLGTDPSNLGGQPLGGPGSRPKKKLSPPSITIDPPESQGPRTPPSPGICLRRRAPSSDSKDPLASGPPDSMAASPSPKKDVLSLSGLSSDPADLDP
T1 sequence (O95180 whole entry): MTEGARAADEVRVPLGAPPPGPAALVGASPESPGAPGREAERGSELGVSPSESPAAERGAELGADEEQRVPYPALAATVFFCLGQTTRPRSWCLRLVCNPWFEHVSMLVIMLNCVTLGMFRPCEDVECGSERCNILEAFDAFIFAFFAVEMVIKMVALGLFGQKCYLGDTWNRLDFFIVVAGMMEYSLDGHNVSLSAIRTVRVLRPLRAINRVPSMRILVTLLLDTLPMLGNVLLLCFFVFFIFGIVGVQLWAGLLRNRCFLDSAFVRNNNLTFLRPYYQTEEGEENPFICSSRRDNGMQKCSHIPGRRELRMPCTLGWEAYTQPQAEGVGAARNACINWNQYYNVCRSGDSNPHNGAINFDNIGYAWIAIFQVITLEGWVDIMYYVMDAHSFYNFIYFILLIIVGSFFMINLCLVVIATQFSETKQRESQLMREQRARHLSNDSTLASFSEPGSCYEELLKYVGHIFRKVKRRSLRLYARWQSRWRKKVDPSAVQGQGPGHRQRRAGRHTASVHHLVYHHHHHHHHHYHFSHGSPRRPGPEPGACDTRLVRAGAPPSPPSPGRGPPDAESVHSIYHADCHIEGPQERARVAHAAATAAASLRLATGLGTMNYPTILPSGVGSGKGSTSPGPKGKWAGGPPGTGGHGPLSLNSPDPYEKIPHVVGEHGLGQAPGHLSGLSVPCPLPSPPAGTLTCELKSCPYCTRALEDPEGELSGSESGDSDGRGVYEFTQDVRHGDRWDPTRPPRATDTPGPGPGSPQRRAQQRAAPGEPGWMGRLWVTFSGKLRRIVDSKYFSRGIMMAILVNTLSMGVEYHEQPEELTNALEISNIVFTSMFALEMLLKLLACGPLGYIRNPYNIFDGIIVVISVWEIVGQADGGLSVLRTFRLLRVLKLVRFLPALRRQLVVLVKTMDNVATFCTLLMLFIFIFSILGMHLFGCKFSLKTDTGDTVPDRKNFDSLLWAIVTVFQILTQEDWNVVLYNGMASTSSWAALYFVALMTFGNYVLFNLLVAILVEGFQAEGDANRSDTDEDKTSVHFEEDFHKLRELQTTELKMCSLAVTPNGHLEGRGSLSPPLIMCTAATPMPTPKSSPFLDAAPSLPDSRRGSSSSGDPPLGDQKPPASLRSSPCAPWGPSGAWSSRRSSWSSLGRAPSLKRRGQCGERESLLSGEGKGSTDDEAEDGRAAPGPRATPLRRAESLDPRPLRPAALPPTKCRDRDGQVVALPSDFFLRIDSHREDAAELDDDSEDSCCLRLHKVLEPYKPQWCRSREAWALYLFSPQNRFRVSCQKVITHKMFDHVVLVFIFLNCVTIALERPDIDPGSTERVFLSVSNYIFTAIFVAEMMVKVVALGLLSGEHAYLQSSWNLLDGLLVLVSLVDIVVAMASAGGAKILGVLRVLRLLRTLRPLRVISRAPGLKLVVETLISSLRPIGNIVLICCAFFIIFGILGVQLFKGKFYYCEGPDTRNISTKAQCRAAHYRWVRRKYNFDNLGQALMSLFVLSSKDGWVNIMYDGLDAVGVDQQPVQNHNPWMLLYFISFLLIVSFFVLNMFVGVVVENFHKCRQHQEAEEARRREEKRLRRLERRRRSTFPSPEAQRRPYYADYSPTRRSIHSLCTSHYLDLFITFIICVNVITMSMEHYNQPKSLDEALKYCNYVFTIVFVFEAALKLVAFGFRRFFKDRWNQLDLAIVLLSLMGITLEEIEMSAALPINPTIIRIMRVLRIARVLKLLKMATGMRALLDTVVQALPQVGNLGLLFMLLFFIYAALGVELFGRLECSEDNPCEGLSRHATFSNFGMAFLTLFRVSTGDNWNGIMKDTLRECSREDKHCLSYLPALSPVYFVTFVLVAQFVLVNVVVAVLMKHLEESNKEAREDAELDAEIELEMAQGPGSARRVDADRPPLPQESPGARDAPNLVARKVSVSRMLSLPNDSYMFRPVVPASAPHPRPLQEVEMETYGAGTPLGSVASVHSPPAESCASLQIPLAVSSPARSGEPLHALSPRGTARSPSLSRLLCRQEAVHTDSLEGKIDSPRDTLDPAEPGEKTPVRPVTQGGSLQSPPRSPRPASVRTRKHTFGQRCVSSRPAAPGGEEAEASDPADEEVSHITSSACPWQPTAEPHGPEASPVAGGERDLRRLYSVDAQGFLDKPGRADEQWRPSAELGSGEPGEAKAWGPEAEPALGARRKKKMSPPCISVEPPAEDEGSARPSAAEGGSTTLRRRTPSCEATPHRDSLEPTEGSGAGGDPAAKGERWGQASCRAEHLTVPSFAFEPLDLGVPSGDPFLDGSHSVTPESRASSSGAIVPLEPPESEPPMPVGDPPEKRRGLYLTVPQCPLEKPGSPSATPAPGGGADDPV
Sequence of D(2) dopamine receptor (Rattus norvegicus) (P61169 whole entry): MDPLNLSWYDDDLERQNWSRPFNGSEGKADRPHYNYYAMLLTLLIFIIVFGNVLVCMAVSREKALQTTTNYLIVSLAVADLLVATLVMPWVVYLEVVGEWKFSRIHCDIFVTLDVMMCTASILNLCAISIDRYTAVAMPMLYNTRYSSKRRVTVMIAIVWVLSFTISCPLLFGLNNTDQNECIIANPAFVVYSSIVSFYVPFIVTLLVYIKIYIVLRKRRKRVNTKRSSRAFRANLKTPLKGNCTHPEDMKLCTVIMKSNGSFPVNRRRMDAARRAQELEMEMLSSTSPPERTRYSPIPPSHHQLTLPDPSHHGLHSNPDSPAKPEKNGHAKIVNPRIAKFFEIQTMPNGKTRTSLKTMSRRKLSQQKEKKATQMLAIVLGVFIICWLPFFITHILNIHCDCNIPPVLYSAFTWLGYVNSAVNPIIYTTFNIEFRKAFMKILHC

The first data set concerns the target T1, Voltage-dependent T-type calcium channel subunit alpha-1H (Homo sapiens, UniProt O95180). In words: Inhibition of human Cav3.2 T-type Ca2+ channel expressed in HEK293 cells assessed as reduction in T-currents at 0.3 uM at -80 mV holding potential by whole cell patch-clamp assay. The data set is classed as cell-based.
Conditions: not given
(In general: In patch-clamp work, channel activity is measured electrically.)
On to `O=c1n(CCCCc2ccccc2Cl)c2ccccc2n1C1CCN(CCCCc2ccccc2)CC1`, for which the inhibition entry was “Active”.

As for `O=c1n(CCCCc2ccccc2)c2ccccc2n1C1CCN(CCCOc2ccccc2)CC1`, the inhibition entry was “Active”.

Turning to `COc1ccccc1CCCCN1CCC(n2c(=O)n(CCCCc3ccccc3)c3ccccc32)CC1`, the inhibition entry is “Active”.

Turning to `O=c1n(CCCCc2ccccc2)c2ccccc2n1C1CCN(CCCCc2cccc(F)c2)CC1`, the inhibition entry is “Active”.

Consider `O=C(CCCc1ccccc1)N1CCC(n2c(=O)n(CCCCc3ccccc3)c3ccccc32)CC1`, for which the inhibition result is “Active”.

Consider `O=c1n(CCCCc2ccccc2)c2ccccc2n1C1CCN(CCCCc2ccccc2)CC1`, for which the inhibition result is “Active”.

For `COc1ccccc1CCCCn1c(=O)n(C2CCN(CCCCc3ccccc3)CC2)c2ccccc21`, the inhibition entry is “Active”.

On to `O=c1n(CCCCc2ccccc2)c2ccccc2n1C1CCN(CCCCc2ccccc2F)CC1`, for which the inhibition result is “Active”.

Regarding `O=c1n(CCCCc2cccc(F)c2)c2ccccc2n1C1CCN(CCCCc2cccc(F)c2)CC1`, the inhibition entry was “Active”.

On to `COc1ccccc1CCCCN1CCC(n2c(=O)n(CCCCc3ccccc3OC)c3ccccc32)CC1`, for which the inhibition result is “Active”.

In the case of `O=c1n(CCCCc2ccccc2)c2ccccc2n1C1CCN(CCCC(c2ccc(F)cc2)c2ccc(F)cc2)CC1`, the inhibition entry is “inactive”.

Another data set has as its target D(2) dopamine receptor (Rattus norvegicus) (UniProt P61169). Put plainly: Displacement of [3H]-spiperone from dopamine D2 receptor in rat brain striatum membrane homogenates at 1 uM incubated for 90 mins. Format: cell membranes.
Conditions: not given
As for `O=c1n(CCCCc2ccccc2Cl)c2ccccc2n1C1CCN(CCCCc2ccccc2)CC1`, the outcome was inactive.

For the compound `O=c1n(CCCCc2ccccc2)c2ccccc2n1C1CCN(CCCOc2ccccc2)CC1`, the result was inactive.

`COc1ccccc1CCCCN1CCC(n2c(=O)n(CCCCc3ccccc3)c3ccccc32)CC1`: the result was inactive.

For `O=c1n(CCCCc2ccccc2)c2ccccc2n1C1CCN(CCCCc2cccc(F)c2)CC1`, the outcome was inactive.

Turning to `O=C(CCCc1ccccc1)N1CCC(n2c(=O)n(CCCCc3ccccc3)c3ccccc32)CC1`, the outcome was inactive.

Turning to `O=c1n(CCCCc2ccccc2)c2ccccc2n1C1CCN(CCCCc2ccccc2)CC1`, the outcome was inactive.

As to `COc1ccccc1CCCCn1c(=O)n(C2CCN(CCCCc3ccccc3)CC2)c2ccccc21`, the outcome was inactive.

With `O=c1n(CCCCc2ccccc2)c2ccccc2n1C1CCN(CCCCc2ccccc2F)CC1`, the result was inactive.

With `O=c1n(CCCCc2cccc(F)c2)c2ccccc2n1C1CCN(CCCCc2cccc(F)c2)CC1`, the outcome was inactive.

For `COc1ccccc1CCCCN1CCC(n2c(=O)n(CCCCc3ccccc3OC)c3ccccc32)CC1`, the result was inactive.

Consider `O=c1n(CCCCc2ccccc2)c2ccccc2n1C1CCN(CCCC(c2ccc(F)cc2)c2ccc(F)cc2)CC1`, for which the result was inactive.

A further data set shares this target. Put plainly: Displacement of [3H]-spiperone from dopamine D2 receptor in rat brain striatum membrane homogenates at 10 uM incubated for 90 mins. The data set is classed as cell membranes.
Conditions: not given
(In general: In a radioligand displacement assay an active substance lowers the binding of a labelled ligand.)
As for `O=c1n(CCCCc2ccccc2)c2ccccc2n1C1CCN(CCCOc2ccccc2)CC1`, the outcome was inactive.

Regarding `COc1ccccc1CCCCN1CCC(n2c(=O)n(CCCCc3ccccc3)c3ccccc32)CC1`, the result was inactive.

For `O=C(CCCc1ccccc1)N1CCC(n2c(=O)n(CCCCc3ccccc3)c3ccccc32)CC1`, the outcome was inactive.

On to `O=c1n(CCCCc2ccccc2)c2ccccc2n1C1CCN(CCCCc2ccccc2)CC1`, for which the result was inactive.

The target of the next data set is T1, Voltage-dependent T-type calcium channel subunit alpha-1H. Put plainly: Inhibition of human Cav3.2 T-type Ca2+ channel expressed in HEK293 cells assessed as effect on T-currents in response to -20 mV test pulse at -80 mV holding potential by whole cell patch-clamp assay. Format: cell-based.
Conditions: not given
For orientation: pIC50 means −log10 of the IC50, conventionally taken in molar units. `O=c1n(CCCCc2ccccc2)c2ccccc2n1C1CCN(CCCCc2cccc(F)c2)CC1`: the pIC50 was 6.82.

For the compound `O=c1n(CCCCc2cccc(F)c2)c2ccccc2n1C1CCN(CCCCc2cccc(F)c2)CC1`, the pIC50 was 7.03.

The target is the same in the next data set. In words: Inhibition of human Cav3.2 T-type Ca2+ channel expressed in HEK293 cells assessed as effect on T-currents in response to -20 mV test pulse at -110 mV holding potential by whole cell patch-clamp assay. The data set is classed as cell-based.
Conditions: not given
Consider `O=c1n(CCCCc2cccc(F)c2)c2ccccc2n1C1CCN(CCCCc2cccc(F)c2)CC1`, for which the pIC50 was 5.96.

Another data set addresses Voltage-dependent T-type calcium channel subunit alpha-1G (Homo sapiens, UniProt O43497). In words: Inhibition of human Cav3.1 T-type Ca2+ channel expressed in HEK293 cells assessed as effect on T-currents in response to -20 mV test pulse at -80 mV holding potential by whole cell patch-clamp assay. Format: cell-based.
Conditions: not given
Take `O=c1n(CCCCc2ccccc2)c2ccccc2n1C1CCN(CCCCc2cccc(F)c2)CC1`: the pIC50 was 6.68.

As to `O=C(CCCc1ccccc1)N1CCC(n2c(=O)n(CCCCc3ccccc3)c3ccccc32)CC1`, the pIC50 is 6.62.

On to `O=c1n(CCCCc2ccccc2)c2ccccc2n1C1CCN(CCCCc2ccccc2)CC1`, for which the pIC50 is 6.68.

`O=c1[nH]c2ccccc2n1C1CCN(CCCC(c2ccc(F)cc2)c2ccc(F)cc2)CC1` [PIMOZIDE]: the pIC50 is 6.51.

Regarding `O=c1n(CCCCc2cccc(F)c2)c2ccccc2n1C1CCN(CCCCc2cccc(F)c2)CC1`, the pIC50 is 6.66.

System in another data set: not listed separately
Put plainly: Half life in mouse at 10 mg/kg, ip measured for 24 hrs by LC-MS/MS analysis. The data set is classed as ADME, organism-based. The following applies: in vivo.
As usually defined, the half-life is the time needed for the level to fall by half in the phase considered. With `O=c1[nH]c2ccccc2n1C1CCN(CCCC(c2ccc(F)cc2)c2ccc(F)cc2)CC1` [PIMOZIDE], the half-life is 2.47 h.

`O=c1n(CCCCc2cccc(F)c2)c2ccccc2n1C1CCN(CCCCc2cccc(F)c2)CC1` gave a half-life of 2.42 h.

Biological target in a further data set: not listed separately
In words: Antagonist activity at 5-HT1 receptor (unknown origin).
Conditions: not given
Further details: species or system Homo sapiens.
In turn, `O=c1[nH]c2ccccc2n1C1CCN(CCCC(c2ccc(F)cc2)c2ccc(F)cc2)CC1` [PIMOZIDE] had a pIC50 of 5.61.

For a further data set, the target named is 5-hydroxytryptamine receptor 2A (Rattus norvegicus) (UniProt P14842). In words: Antagonist activity at 5-HT2A receptor in Wistar rat jugular vein assessed as vasorelaxation of serotonin-induced contraction at 100 uM preincubated for 10 mins followed by serotonin stimulation. The following applies: filed as antagonist. The data set is classed as functional, tissue-based.
Turning to `COC(=O)[C@@H](N)CCCNC(=N)N[N+](=O)[O-]`, the result was Active.

The target is the same in a further data set. In words: Antagonist activity at 5-HT2A receptor in Wistar rat jugular vein assessed as vasorelaxation of serotonin-induced contraction at 10 uM preincubated for 10 mins followed by serotonin stimulation. The data set is classed as functional, tissue-based.
Conditions: not given
With `O=c1n(CCCCc2cccc(F)c2)c2ccccc2n1C1CCN(CCCCc2cccc(F)c2)CC1`, the result was inactive.

The data set is the same for the next values; noted with them: filed as antagonist.
Take `O=c1[nH]c2ccccc2n1C1CCN(CCCC(c2ccc(F)cc2)c2ccc(F)cc2)CC1` [PIMOZIDE]: the result was Active.

For `COc1ccc2c(c1)c(CC(=O)O)c(C)n2C(=O)c1ccc(Cl)cc1`, the result was Active.

A further data set deals with Mus musculus. In words: Antinociceptive activity in Na2S induced colonic pain mouse model at 0.03 to 0.5 mg/kg, ip pretreated for 30 mins followed by intra-colonic administration of Na2S and measured for 30 mins by von frey test. Format: functional, organism-based. The following applies: dose 0.03-0.5 mg/kg, time 60.0 min.
As to `O=c1[nH]c2ccccc2n1C1CCN(CCCC(c2ccc(F)cc2)c2ccc(F)cc2)CC1` [PIMOZIDE], the outcome was Active.

The next data set concerns Mus musculus. In words: Antinociceptive activity in Na2S induced referred hyperalgesia mouse model at 0.03 to 0.5 mg/kg, ip pretreated for 30 mins followed by intracolonic administration of Na2S and measured for 30 mins by von frey test. Format: functional, organism-based. The following applies: dose 0.03-0.5 mg/kg, time 60.0 min.
Regarding `O=c1[nH]c2ccccc2n1C1CCN(CCCC(c2ccc(F)cc2)c2ccc(F)cc2)CC1` [PIMOZIDE], the outcome was Active.

System in the next data set: not listed separately
Put plainly: Toxicity in mouse assessed as catelepsy at 8 nmol per mouse, icv measured for 180 mins by bar test. As to conditions: in vivo, icv_or_intrathecal, 3 h.
Take `O=C(CCCc1ccccc1)N1CCC(n2c(=O)n(CCCCc3ccccc3)c3ccccc32)CC1`: the Activity entry is listed as “Non-Toxic”.

For `O=c1n(CCCCc2ccccc2)c2ccccc2n1C1CCN(CCCCc2ccccc2)CC1`, the Activity entry is recorded as “Non-Toxic”.

`O=c1[nH]c2ccccc2n1C1CCN(CCCC(c2ccc(F)cc2)c2ccc(F)cc2)CC1` [PIMOZIDE]: the Activity result was “Toxic”.

On to `O=c1n(CCCCc2cccc(F)c2)c2ccccc2n1C1CCN(CCCCc2cccc(F)c2)CC1`, for which the Activity entry was “Non-Toxic”.

System in a further data set: not listed separately
In words: Toxicity in mouse assessed as catelepsy at 0.3 to 1 mg/kg, ip measured for 300 mins by bar test. Format: organism-based. The following applies: in vivo, 5 h, dose 0.3-1 mg/kg.
As for `O=c1[nH]c2ccccc2n1C1CCN(CCCC(c2ccc(F)cc2)c2ccc(F)cc2)CC1` [PIMOZIDE], the Activity result is reported as “Toxic”.

System in the next data set: not listed separately
In words: Toxicity in mouse assessed as catelepsy at 10 mg/kg, ip measured for 300 mins by bar test. Format: organism-based. The following applies: in vivo, 5 h.
Take `O=C(CCCc1ccccc1)N1CCC(n2c(=O)n(CCCCc3ccccc3)c3ccccc32)CC1`: the Activity entry is reported as “Non-Toxic”.

Turning to `O=c1n(CCCCc2ccccc2)c2ccccc2n1C1CCN(CCCCc2ccccc2)CC1`, the Activity result is recorded as “Non-Toxic”.

As to `O=c1n(CCCCc2cccc(F)c2)c2ccccc2n1C1CCN(CCCCc2cccc(F)c2)CC1`, the Activity result is reported as “Non-Toxic”.

System in the next data set: not listed separately
Put plainly: Toxicity in mouse assessed as impairment of neuromuscular coordination by measuring shortened latency to fall at 1 mg/kg, ip measured after 60 to 90 mins by rota-rod test. Format: organism-based. As to conditions: in vivo, time 60-90 min. On the technique in general: In the rotarod test animals must keep their balance on a rotating rod.
As for `O=c1[nH]c2ccccc2n1C1CCN(CCCC(c2ccc(F)cc2)c2ccc(F)cc2)CC1` [PIMOZIDE], the Activity result is reported as “Toxic”.

System in the next data set: not listed separately
In words: Toxicity in mouse assessed as impairment of neuromuscular coordination by measuring shortened latency to fall at 10 mg/kg, ip measured after 60 to 90 mins by rota-rod test. The data set is classed as organism-based. As to conditions: in vivo, time 60-90 min.
As for `O=C(CCCc1ccccc1)N1CCC(n2c(=O)n(CCCCc3ccccc3)c3ccccc32)CC1`, the Activity entry is “Non-Toxic”.

Regarding `O=c1n(CCCCc2ccccc2)c2ccccc2n1C1CCN(CCCCc2ccccc2)CC1`, the Activity entry was “Non-Toxic”.

`O=c1n(CCCCc2cccc(F)c2)c2ccccc2n1C1CCN(CCCCc2cccc(F)c2)CC1`: the Activity result is on record as “Non-Toxic”.
